# Read-outs that look alike come from different tables or passages of the source.
# Key:
# [1] = target: T1, GAL4-hERα (Homo sapiens, UniProt P03372); assay: Transactivation assay for estrogen activity, GAL4-hERα LBD chimeric receptor with (UAS)4-alkaline phosphatase reporter in CHO-K1 cells; type: cell-based; conditions: for EC50: CHO-K1 cells, ALP reporter, read-out: EC50 value for ERα (converted); for ALP activity with increasing concentration, GAL4-hERα / concentration at which the maximal activation of ERα is achieved: dose response curve; for maximal activation of ERα: at the concentration of maximal activation (compound 2: 40 μg/mL; compound 6: 20 μg/mL)
# T1 construct: GAL4hERα (or β) LBD chimeric receptors; expressed in transfected cells; host or cells: CHO-K1 (CCRC 60006), transient co-transfection with Fugene 6
# T1 sequence (P03372 311-547 limits assumed): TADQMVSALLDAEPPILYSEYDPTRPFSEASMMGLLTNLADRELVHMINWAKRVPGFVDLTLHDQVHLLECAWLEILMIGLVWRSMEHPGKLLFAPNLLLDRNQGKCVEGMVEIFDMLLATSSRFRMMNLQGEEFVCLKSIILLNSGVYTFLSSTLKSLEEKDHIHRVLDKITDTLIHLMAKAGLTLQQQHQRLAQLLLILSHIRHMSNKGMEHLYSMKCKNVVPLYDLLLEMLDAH
# Description: (§1) To evaluate the estrogen activity, the pBKCMV plasmid containing the gene of GAL4hERα (or β) LBD chimeric receptors was co-transfected with a plasmid containing the (UAS)4-alkaline phosphatase reporter gene into CHO-K1 cells. When a test sample was reacted with ER, the GAL4 was mediated to bind specifically with the UAS upstream of the reporter gene so as to activate the expression of the reporter gene, i.e. the alkaline phosphatase (ALP) enzyme. By measuring the alkaline phosphatase activity, we can detect the estrogen activity of the sample.
# (§2) Cells were grown to confluence and seeded into 96-well microplates for a day. Before transfection, the two plasmids DNA in equal proportions were added to a mixture of the Fugene 6 transfection reagent and Ham's F12 medium, and then incubated for 20 min. At transfection, the fugene 6-DNA mixture was then added to the cells after the original FBS containing medium was removed.
# (§3) After a 2-day culture, an aliquot of the medium was taken for the analysis of alkaline phosphatase activity.
# [2] = target: T2, GAL4-hERβ (Homo sapiens, UniProt Q92731); assay: Transactivation assay for estrogen activity, GAL4-hERβ LBD chimeric receptor with (UAS)4-alkaline phosphatase reporter in CHO-K1 cells; type: cell-based; conditions: for EC50: CHO-K1 cells, ALP reporter, read-out: EC50 value for ERβ (converted); for ALP activity with increasing concentration, GAL4-hERβ / concentration at which the maximal activation of ERβ is achieved: dose response curve; for maximal activation of ERβ: at the concentration of maximal activation (compound 2: 40 μg/mL; compound 6: 20 μg/mL)
# T2 construct: GAL4hERα (or β) LBD chimeric receptors; expressed in transfected cells; host or cells: CHO-K1 (CCRC 60006), transient co-transfection with Fugene 6
# T2 sequence (Q92731 264-498 limits assumed): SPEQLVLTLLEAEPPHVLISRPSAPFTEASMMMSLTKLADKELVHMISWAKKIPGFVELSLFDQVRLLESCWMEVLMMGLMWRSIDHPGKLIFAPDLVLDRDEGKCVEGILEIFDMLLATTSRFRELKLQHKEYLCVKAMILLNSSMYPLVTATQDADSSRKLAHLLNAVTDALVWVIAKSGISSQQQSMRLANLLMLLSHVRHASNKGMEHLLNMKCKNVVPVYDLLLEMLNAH
# Description: as §1, §2, §3
# [3] = three concentrations, fraction with compound 5
SMILES,EC50 [1],EC50 ([1]; value in parentheses),"ALP activity with increasing concentration, GAL4-hERα [1]",concentration at which the maximal activation of ERα is achieved [1],concentration at which the maximal activation of ERα is achieved ([1]; value in parentheses),EC50 [2],EC50 ([2]; value in parentheses),"ALP activity with increasing concentration, GAL4-hERβ [2]",concentration at which the maximal activation of ERβ is achieved [2],concentration at which the maximal activation of ERβ is achieved ([2]; value in parentheses),maximal activation of ERα [1],maximal activation of ERβ [2],"ALP activity, activation of GAL4-hERα [1, 3]","ALP activity, activation of GAL4-hERβ [2, 3]"
"Cc1c(C)c2c(c(C)c1O)CC[C@@](C)(CCC[C@H](C)CCC[C@H](C)CCCC(C)C)O2 [compound 1, RRR-α-tocopherol]",2.51 µM,2.5 µM,–,–,–,9.19 µM,9.2 µM,–,–,–,–,–,–,–
"COc1cc(/C=C/C(=O)OCC(O)CO)ccc1O (stereo not shown) [compound 5, 1-feruloyl glycerol]",–,–,–,–,–,–,–,–,–,–,–,–,significant increases in the ALP activity,significant increases in the ALP activity

# Now from value to compound, other results behind:
EC50 [1],EC50 ([1]; value in parentheses),"ALP activity with increasing concentration, GAL4-hERα [1]",concentration at which the maximal activation of ERα is achieved [1],concentration at which the maximal activation of ERα is achieved ([1]; value in parentheses),EC50 [2],EC50 ([2]; value in parentheses),"ALP activity with increasing concentration, GAL4-hERβ [2]",concentration at which the maximal activation of ERβ is achieved [2],concentration at which the maximal activation of ERβ is achieved ([2]; value in parentheses),maximal activation of ERα [1],maximal activation of ERβ [2],SMILES,"ALP activity, activation of GAL4-hERα [1, 3]","ALP activity, activation of GAL4-hERβ [2, 3]"
51 µM,13.3 µM,dose-dependent increase,20 µg/mL,25.2 µM,1.06 µM,1.06 µM,dose-dependent increase,20 µg/mL,25.2 µM,–,–,"COC1=C(OC)C(=O)C(C/C=C(\C)CC/C=C(\C)CC/C=C(\C)CC/C=C(\C)CC/C=C(\C)CC/C=C(\C)CC/C=C(\C)CC/C=C(\C)CCC=C(C)C)=C(C)C1=O [compound 3, coenzyme Q9]",–,–
10.7 µM,10.8 µM,dose-dependent increase,40 µg/mL,50.34 µM,7.36 µM,7.4 µM,dose-dependent increase,40 µg/mL,50.34 µM,3.68 fold,3.79 fold,"COc1c(O)c(C)c2c(c1OC)O[C@](C)(CC/C=C(\C)CC/C=C(\C)CC/C=C(\C)CC/C=C(\C)CC/C=C(\C)CC/C=C(\C)CC/C=C(\C)CCC=C(C)C)C=C2 [compound 2, hydro-Q9 chromene]",–,–
12.7 µM,12.7 µM,dose-dependent increase,20 µg/mL,26.64 µM,3.19 µM,3.2 µM,dose-dependent increase,20 µg/mL,26.64 µM,2.91 fold,3.26 fold,"CC(C)=CCC/C(C)=C/CC/C(C)=C/CC/C(C)=C/CC/C(C)=C/CC/C(C)=C/CC/C(C)=C/CC/C(C)=C/CC[C@]1(C)CCc2cc(O)c(C)c(C)c2O1 [compound 6, γ-tocopherol-9]",–,–

# From US7999004B2, “Compounds having estrogenic activity” (National Taiwan University, priority 2007, dated 2011)
